Experimental data taken from article PMC9762759, “High-throughput discovery of novel small-molecule inhibitors of acid Ceramidase” (Journal of Enzyme Inhibition and Medicinal Chemistry, 2022).

What was measured:
acid ceramidase (AC) = target: T1, acid ceramidase (AC) (Homo sapiens, UniProt Q13510); experiment: Acid ceramidase HTS assay, 384-well fluorogenic (RBM14-C12), cell lysates; assay type: biochemical; settings: for IC50: dose-titration, 8-point two-fold dilution from 200 micromolar, 95% confidence interval in brackets, means of three replicates; for inhibition at 20 µM: primary assay, single-point concentration of 20 μM, lysates of AC-overexpressing A375 melanoma cells, substrate RBM14-C12 20 µM, pH 4.5
T1 construct: expressed in transfected cells
T1 sequence (Q13510 22-395): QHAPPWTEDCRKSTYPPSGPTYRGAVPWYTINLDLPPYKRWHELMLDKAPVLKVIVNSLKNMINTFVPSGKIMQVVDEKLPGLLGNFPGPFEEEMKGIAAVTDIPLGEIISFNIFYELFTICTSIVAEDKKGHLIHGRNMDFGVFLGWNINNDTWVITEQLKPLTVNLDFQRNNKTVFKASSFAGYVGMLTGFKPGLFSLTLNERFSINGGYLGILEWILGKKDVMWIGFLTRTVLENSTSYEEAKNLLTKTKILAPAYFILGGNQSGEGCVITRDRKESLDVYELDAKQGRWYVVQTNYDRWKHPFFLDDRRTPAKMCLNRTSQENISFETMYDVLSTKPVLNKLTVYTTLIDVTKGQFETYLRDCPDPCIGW
Description: To start with, the final reaction volume was adapted from 100 µL (96-well-format) to 32 µL (384 well-format) with a final concentration of substrate of 20 µM. Next, protein concentration was adjusted using cell lysates of AC-overexpressing A375 melanoma cells. Ideally, the optimal amount of protein is the one that ensures reaction linearity over a period of time together with less than 10% of substrate depletion, in order to assume that the enzyme operates at steady-state conditions. Thus, different amounts of cell lysates were mixed with the substrate and product formation was measured over 1 h. […] Finally, an amount of 0.4 µg of protein was chosen, as higher amounts of proteins were not in the linear portion whereas lower amounts would compromise the signal window. The optimal incubation time of the reaction mixture was next explored. […] As a first validation step, we performed a control run consisting of 60 wells representing AC activity and 60 wells representing the signal in absence of the enzyme. […] The calculated coefficients of variation (CV) for both the high and low controls were 6.08% and 17.1% respectively.
After having successfully established the optimal reaction conditions in a 384-well format, we employed this newly miniaturised AC assay in a pilot screen against a library of 4100 compounds. The screen was carried out at a single dose of 20 µM for each library compound in 6% DMSO (v/v) and in duplicate. The acid ceramidase inhibitor SOCLAC was used as a pharmacological control for the assay. The Z’-factor per plate were consistent with those obtained during the initial validation. […] An example hit map from one screening plate is shown (Figure 2(C)). The inhibitory activity of these hits was then validated in an additional assay performed at a single-point concentration in triplicates.
To confirm the results from the primary screening, top hits were cherry-picked and tested in a concentration-dependent response assay with triplicates per sample. Thus, 101 compounds were then subjected to 8-points two-fold dilution series starting at a maximum concentration of 200 micromolar.
(§1) The A375 cell line stably overexpressing ASAH1 under the control of a tetracycline/doxycycline-responsive promoter was kindly provided by Dr. Carmen Bedia and Prof. Thierry Levade[17]. The antibiotic selection of this cell line was performed with blasticidin (3 µg/mL) and hygromycin B (250 µg/mL). Ectopic expression of AC was induced with doxycycline at 1 µg/mL for 24 h before use. Cells were suspended in the appropriate volume of a 0.25 M saccharose solution with the proteases inhibitors aprotinin (1 mg/mL), leupeptin (1 mg/mmL) and PMSF (100 mM). The suspension was submitted to three cycles of a 5 s sonication (probe) at 10 watts/5 s resting on ice. The cell lysate was centrifuged at 600 g for 5 min. The supernatant was collected and protein concentration was determined with BSA as a standard using the bicinchoninic acid (BCA) protein determination kit (Thermo Scientific) according to the manufacturer’s instructions.
A previously described 96-well plate assay[25] was miniaturised into a 384-well plate format with a final reaction volume of 32 µL. Plated compounds were diluted with a mixture of DMSO/H2O (1.6 µL/18 µL), and after centrifugation, 3.2 µL were dispensed into a new 384-well plate, so that the final concentration of the compound in the final reaction volume of 32 µL was 20 µM and the DMSO content of the assay was 1%. Next, 20.8 µL of a substrate solution of RBM14-C12 in sodium acetate buffer (25 mM, pH 4.5) was added for a final concentration of 20 µM, followed by the addition of 8 µL of a 0.25 M sucrose solution of cell lysates from AC-overexpressing A375 melanoma cells containing 0.4 µg of protein The reaction was terminated after 60 min incubation at 37 °C by adding 8 µL of methanol. Oxidation was performed by treatment with 32 µL of a [2.5 mg/mL] solution of NaIO4 in 100 mM glycine-NaOH buffer (pH 10.6). […]

[1] = target: T2, recombinant human NC (rhNC) (Homo sapiens, UniProt Q9NR71); experiment: Neutral ceramidase assay, fluorogenic substrate RBM14-C24:1; assay type: biochemical; settings: single-point concentration of 50 μM; means of three replicates
T2 construct: purchased R&D Systems
Description: As mentioned above, hydrolysis of ceramides occurs by the action of ceramidases which are encoded by five known genes and are distinguished by the pH required for optimal activity. A common problem with AC inhibitors, especially those one with a scaffold related to the structure of ceramide, is the lack of selectivity over other ceramidases. Thus, to discard a selectivity issue, the activity of nine detected hits against neutral ceramidase was next explored at 50 µM. Activity over NC was tested using recombinant human NC (rhNC) and a specific NC substrate bearing a nervonic acid amide (RBM14-C24:1)[30]. Remarkably, none of the molecules elicited a significant inhibitory activity, thereby confirming the selective inhibition of AC over NC (Supplemental Table 1).
The NC assay was performed in 96-well plates at a final volume of 100 µL/well. Reaction buffers was 25 mM phosphate buffer 150 mM NaCl 1% (NaChol) pH 7.4. The reaction mixtures contained 25 µL/well of protein (5 ng recombinant NC R&D Systems, >95% pure), 70 µL/well of substrate (prepared from 4 mM stock solutions in ethanol) and 5 µL/well of inhibitor (prepared from 1 mM stock solutions in DMSO/H2O). Reaction mixtures were incubated at 37 °C for 1 h and reactions were stopped with 25 µL/well of MeOH followed by 100 µL/well of NaIO4 (2.5 mg/mL in 100 mM glycine-NaOH buffer, pH 10.6). After incubation at 37 °C for 1 h in the dark, 100 µL/well of 100 mM glycine-NaOH buffer (pH 10.6) was added and fluorescence was measured spectrophotometrically at excitation and emission wavelenght of 355 and 460 nm, respectively. The same reaction mixtures without enzymes were used as blanks.

[2] = target: T3, acid ceramidase in AC overexpressing A375 cells (Homo sapiens, UniProt Q13510); experiment: Fluorogenic ceramidase activity assay in intact cells (RBM14-C12); assay type: cell-based; settings: for inhibition at 20 µM: A-375, single-point concentration of 20 µM, 3 h, triplicate
T3 construct: expressed in transfected cells
T3 sequence (Q13510 22-395): T1 sequence (Q13510 22-395)
Description: Cell-based assays allow evaluating biological activity in a more physiologically relevant system that also considers additional factors that might have a positive impact on inhibitory potency such as permeabilization through cellular membranes, metabolisation or concentration by intracellular compartmentalisation. Thus, the activity of the nine selected hits was next examined in intact cells using AC overexpressing A375 cells and the fluorogenic substrate RBM14-C12. First, compounds were tested in a primary screening assay. Measurements were performed in triplicated at a single-point concentration of 20 µM.
as §1
To determine activity in intact cells, 2 × 10^4 cells/well were seeded in 96-well plates 24 h prior to the assay and maintained at 37 °C and 5% CO2. Overexpression of AC was induced with doxycycline at 1 µg/mL for 24 h. […] After incubation at 37 °C for 1 h in the dark, 100 µL/well of 100 mM glycine-NaOH buffer (pH 10.6) were added and fluorescence was measured spectrophotometrically at excitation and emission wavelengths of 355 and 460 nm, respectively. […]

T2 sequence (Q9NR71 whole entry): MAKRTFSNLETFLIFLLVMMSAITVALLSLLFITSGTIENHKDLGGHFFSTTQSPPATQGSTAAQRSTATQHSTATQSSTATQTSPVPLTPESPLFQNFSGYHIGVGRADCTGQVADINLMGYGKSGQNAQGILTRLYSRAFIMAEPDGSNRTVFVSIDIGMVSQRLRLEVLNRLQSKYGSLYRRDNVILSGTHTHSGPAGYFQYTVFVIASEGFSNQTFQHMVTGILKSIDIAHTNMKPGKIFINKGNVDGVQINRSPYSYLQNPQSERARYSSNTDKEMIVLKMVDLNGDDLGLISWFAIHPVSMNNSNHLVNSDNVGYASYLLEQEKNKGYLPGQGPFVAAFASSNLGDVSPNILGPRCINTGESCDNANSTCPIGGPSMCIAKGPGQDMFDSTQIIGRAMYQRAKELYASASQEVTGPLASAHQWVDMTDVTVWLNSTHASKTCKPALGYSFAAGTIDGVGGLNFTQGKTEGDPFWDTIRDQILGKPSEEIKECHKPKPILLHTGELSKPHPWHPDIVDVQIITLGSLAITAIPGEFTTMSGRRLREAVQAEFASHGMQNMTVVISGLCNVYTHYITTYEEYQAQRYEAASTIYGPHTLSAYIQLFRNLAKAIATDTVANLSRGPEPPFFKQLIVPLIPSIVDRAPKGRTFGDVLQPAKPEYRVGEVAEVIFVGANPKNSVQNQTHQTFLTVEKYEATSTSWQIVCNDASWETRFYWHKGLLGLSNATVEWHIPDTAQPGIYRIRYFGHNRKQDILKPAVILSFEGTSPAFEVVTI

Compound | IC50 (acid ceramidase (AC)) [µM] | inhibition at 20 µM (acid ceramidase (AC)) [%] | inhibition at 50 µM [1] [%] | inhibition at 20 µM [2] [%] | IC50 ([2]; interval (24.3–44.7) printed, read-out: IC50 in the cell-based assay) [µM]
CN(CCc1ccccn1)S(=O)(=O)c1cccc(Br)c1 [W000113402_C12] | 10.6 | 75.5 | -5.9 | 53 | 32
CC(C)(C)CC(=O)N1CCN(c2cccc(C(F)(F)F)c2)CC1 [W000113414_C16] | 48.9 | 59 | -4.1 |  | 
C=CCNC(=S)Nc1ccc(Cl)c([N+](=O)[O-])c1 [W000113403_I18] | 10.6 | 63.4 | 23.4 |  | 
Cc1ccc(CN2CC(C(=O)N(C)Cc3ccc(Cl)c(Cl)c3)CC2=O)cc1 (centres unmarked) [W000113407_J11] | 23.9 | 59.2 | 20.8 |  | 

Other lines, results leading:

IC50 (acid ceramidase (AC)) [µM] | inhibition at 20 µM (acid ceramidase (AC)) [%] | inhibition at 50 µM [1] [%] | inhibition at 20 µM [2] [%] | IC50 ([2]; interval (24.3–44.7) printed, read-out: IC50 in the cell-based assay) [µM] | Compound
36.7 | 60.4 | -1.3 |  |  | CCCCc1ccc(C(=O)CCC2C(=O)c3ccccc3C2=O)cc1 [W000113414_D15]
11.1 | 61.4 | -8.9 | 32 |  | Cc1cc(O[C@H](c2ccc(C(=O)NC[C@H](O)C(=O)O)s2)C(C)C)cc(C)c1-c1ccc(C(F)(F)F)cc1 [W000113414_H19]
7.9 | 53.8 | 8.5 |  |  | CC1CCCCN1C(=O)Nc1ccc(Oc2ccccc2)cc1 (centres unmarked) [W000113402_O07]
 | 67.4 | 22.9 |  |  | CCC(CC)(c1ccc(OCC2(C(C)(C)C)OCCO2)c(C)c1)c1cc(C)c2oc(C(=O)NCC(=O)O)cc2c1 [W000113414_I13]
15.8 | 41.7 | 35.6 |  |  | CC(OC(=O)c1c2c(nc3ccccc13)/C(=C/c1cccs1)CC(C(C)(C)C)C2)C(=O)Nc1ccc(C(N)=O)cc1 (centres unmarked) [W000113400_H06]
